Source: US20250241914A1, “BIFUNCTIONAL PHARMACEUTICAL COMPOUNDS” (DE MONTFORT UNIVERSITY, priority 2024, published 2025)
In brackets after ≈: the same amount, converted by molar mass. Like-named read-outs stand apart in the source and are kept apart here.

Legend:
S. aureus NCTC 12493 = test: in vitro antistaphylococcal activity, broth microdilution method (MIC/MBC); type: cell-based, Staphylococcus aureus; details: for MIC / MBC: Staphylococcus aureus; for MIC: NCTC12493, lowest concentration inhibiting visible growth; for MBC: NCTC12493, lowest concentration reducing viability of inoculum by ≥99.9%, 24 h at 37° C.
[1] = system: M. tuberculosis H37Rv (ATCC 25618 Wild-type); test: microbe, parasite or virus in culture; type: cell-based
[2] = system: M. tuberculosis HN-878 (wild-type); test: microbe, parasite or virus in culture; type: cell-based
[3] = Mycobacterium tuberculosis, 120 h; read-out: Mycobacterium tuberculosis strain MIC90, H37Rv
[4] = Mycobacterium tuberculosis, 120 h; read-out: Mycobacterium tuberculosis strain MIC90, HN-878

Structure (SMILES)	MBC value relative to MIC value (S. aureus NCTC 12493)	MIC (S. aureus NCTC 12493)	MBC (S. aureus NCTC 12493)	MIC90 [1, 3]	MIC90 [2, 4]	MIC90 ([1]; Mycobacterium tuberculosis, 120 h, read-out: Mycobacterium tuberculosis strain MIC90, H37Rv)	MIC90 ([2]; Mycobacterium tuberculosis, 120 h, read-out: Mycobacterium tuberculosis strain MIC90, HN-878)
CO[C@H]1/C=C/O[C@@]2(C)Oc3c(C)c(O)c4c(O)c(c(CNCCCn5cc(CCn6cc(F)c(=O)[nH]c6=O)nn5)c(O)c4c3C2=O)NC(=O)/C(C)=C\C=C\[C@H](C)[C@H](C)[C@@H](C)[C@@H](O)[C@@H](C)[C@H](OC(C)=O)[C@@H]1C [Compound 3A]	the same	1 µg/mL (≈ 1.01 µM)	1 µg/mL (≈ 1.01 µM)	0.0039 µM (≈ 0.00386 µg/mL)	0.059 ± 0.01 µM (≈ 0.0584 µg/mL)	–	–
CO[C@H]1/C=C/O[C@@]2(C)Oc3c(C)c(O)c4c(O)c(c(CNCCOCCOCCOCn5cc(CCn6cc(F)c(=O)[nH]c6=O)nn5)c(O)c4c3C2=O)NC(=O)/C(C)=C\C=C\[C@H](C)[C@H](C)[C@@H](C)[C@@H](O)[C@@H](C)[C@H](OC(C)=O)[C@@H]1C [Compound 3B]	the same	2 µg/mL (≈ 1.83 µM)	2 µg/mL (≈ 1.83 µM)	0.0039 µM (≈ 0.00427 µg/mL)	0.096 ± 0.064 µM (≈ 0.105 µg/mL)	–	–
CO[C@H]1/C=C/O[C@@]2(C)Oc3c(C)c(O)c4c(O)c(c(CNCCOCCOCCOCn5cc(CCCn6cc(F)c(=O)[nH]c6=O)nn5)c(O)c4c3C2=O)NC(=O)/C(C)=C\C=C\[C@H](C)[C@H](C)[C@@H](C)[C@@H](O)[C@@H](C)[C@H](OC(C)=O)[C@@H]1C [Compound 3C]	–	–	–	0.0034 µM (≈ 0.00377 µg/mL)	0.07 ± 0.042 µM (≈ 0.0776 µg/mL)	–	–
O=c1[nH]cc(F)c(=O)[nH]1 [Compound 5-FU, 5-Fluorouracil, reference compound]	8 times	2 µg/mL (≈ 15.4 µM)	16 µg/mL (≈ 123 µM)	–	–	–	–
NNC(=O)c1ccncc1 [Isoniazid, reference compound]	–	–	–	0.28 µM (≈ 0.0384 µg/mL)	0.29 µM (≈ 0.0398 µg/mL)	–	–
CO[C@H]1/C=C/O[C@@]2(C)Oc3c(C)c(O)c4c(O)c(c(/C=N/N5CCN(C)CC5)c(O)c4c3C2=O)NC(=O)/C(C)=C\C=C\[C@H](C)[C@H](O)[C@@H](C)[C@@H](O)[C@@H](C)[C@H](OC(C)=O)[C@@H]1C [Rifampicin, reference compound]	16 times	0.25 µg/mL (≈ 0.304 µM)	4 µg/mL (≈ 4.86 µM)	–	–	0.0045 µM (≈ 0.0037 µg/mL)	0.02 µM (≈ 0.0165 µg/mL)
